According to patent publication US20130338130A1 (priority 2009, published 2013):

Assays:
[1] = tested on: ATCC strain 43300 Staphylococcus aureus; assay: MRSA survival in MSM, DMSO and oxacillin, 48 hours (Example 2); settings: for log reduction in cfu/ml: MDA condition (6 μg/ml oxacillin + MSM + 1% DMSO)
Protocol: All concentrations were plated out to the 10^−7 dilutions to ascertain cfu/ml.
Material was calculated on a 10 ml volume. […] Sterile DMSO was added to appropriate tubes. Sterile oxacillin was added to appropriate tubes at 300 microliters from a 30 mg/10 ml concentration giving it a final concentration of 6 μg/ml. Control conditions were Lactose Broth inoculated with ATCC strain 43300 Staphylococcus aureus with and without 6 μg/ml oxacillin, as well as uninoculated negative controls to show no signs of contamination.
Appropriate tubes were inoculated at a dilution of ATCC strain 43300 Staphylococcus aureus giving a final concentration of colony forming units of 3.15×10^7/ml (Log=7.49). The tubes were incubated at 25° C. and mixed periodically. Plating was done at 48 hours. […] They were serial diluted down to 10^−7 with 1 ml placed in a sterile petri dish at each dilution point. Then 20 mls of TSA was added to each dilution and swirled and allowed to solidify. All dilutions were placed in a 35° C. incubator for 24 hours. Plates were counted and colony counts changed into log format. A positive and negative control was ascertained.

[2] = tested on: ATCC strain 43300 Staphylococcus aureus; assay: MSM alone, MRSA survival (Example 1); settings: 5-16% MSM alone, no antibiotic, 24 or 48 hour
Protocol: (§1) USP<51> Antimicrobial Effectiveness protocol was used as the template experimental paradigm. […] All concentrations were plated out to the 10^−7 dilutions to ascertain cfu/ml.
Material was calculated on a 10 ml volume.
All tubes were inoculated with a dilution of MRSA giving a final level of colony forming units of 2.0×10^5/ml (Log=5.23). The tubes were incubated at 25° C. and mixed periodically. Plating was done at 24 and 48 hours. Each condition was plated by diluting 1 ml of growth material into 9 ml of MLB diluent broth. This mixture was serial diluted down to 10^−7, and 1 ml placed in a sterile petri dish at each dilution point. 20 mls of TSA was added to each dilution, swirled and allowed to solidify. All dilutions were placed in a 35° C. incubator for 24 hours. Bacterial colonies on each plate were counted and colony counts changed into log format. A positive and negative control was ascertained.

[3] = tested on: ATCC strain 43300 Staphylococcus aureus; assay: MRSA survival in MSM and 6 μg/ml oxacillin or methicillin, 24, 48, 120 hours (Example 4)
Protocol: The growth periods tested were 24 hours, 48 hours and 5 days.
as §1
Material was calculated on a 10 ml volume. Sterile oxacillin or methicillin was added to each experimental condition daily at 300 μl from a 30 mg/10 ml concentration giving it an initial final concentration of 6 μg/ml.
All tubes were inoculated with a dilution of MRSA giving a final level of colony forming units of 2.13×10^6/ml (Log=6.3). The tubes were incubated at 25° C. and mixed periodically. Plating was done at 24 hours, 48 hours and 5 days. Each condition was plated by diluting 1 ml of growth material into 9 ml of MLB diluent broth. This mixture was serial diluted down to 10^−7, and 1 ml placed in a sterile petri dish at each dilution point. 20 mls of TSA was added to each dilution, swirled and allowed to solidify. All dilutions were placed in a 35° C. incubator for 24 hours. Bacterial colonies on each plate were counted and colony counts changed into log format. A positive and negative control was ascertained.

[4] = 6 μg/ml methicillin + MSM (initial % in label), 48 hours, listed as 5% MSM
[5] = 6 μg/ml methicillin + MSM (initial % in label), 48 hours, listed as 16% MSM
[6] = 6 μg/ml oxacillin + MSM (initial % in label), 48 hours, listed as 8% MSM
[7] = 6 μg/ml oxacillin + MSM (initial % in label), 48 hours, listed as 16% MSM

SMILES: CS(C)(=O)=O [MSM, Methylsulfonylmethane]
- maximum log reduction in cfu/ml ([1]; MA condition, 10-16% MSM): 2.9 log
- log reduction in cfu/ml ([1]; listed as 9% MSM): 1.6 log
- log reduction in cfu/ml ([1]; listed as 10-16% MSM): 2.0 log
- effect on survival [2]: none of the concentrations of MSM tested had any effect on the survival
- survival (Log cfu/ml) ([3]; 6 μg/ml methicillin + MSM (initial % in label), 48 Hours, listed as 8% MSM): 3.60 Log cfu/ml
- survival (Log cfu/ml) ([3]; 6 μg/ml methicillin + MSM (initial % in label), 48 Hours, listed as 10% MSM): 3.70 Log cfu/ml
- survival (Log cfu/ml) ([3]; 6 μg/ml methicillin + MSM (initial % in label), 48 Hours, listed as 12% MSM): 3.70 Log cfu/ml
- survival (Log cfu/ml) ([3]; 6 μg/ml methicillin + MSM (initial % in label), 48 Hours, listed as 13% MSM): 3.90 Log cfu/ml
- survival (Log cfu/ml) ([3]; 6 μg/ml methicillin + MSM (initial % in label), 48 Hours, listed as 14% MSM): 3.98 Log cfu/ml
- survival (Log cfu/ml) ([3]; 6 μg/ml methicillin + MSM (initial % in label), 48 Hours, listed as 15% MSM): 4.00 Log cfu/ml
- survival (Log cfu/ml) ([3]; 6 μg/ml methicillin + MSM (initial % in label), 24 hours, 3.5% MSM and antibiotic added daily, inoculum Log=6.3): 4.30 Log cfu/ml
- survival (Log cfu/ml) ([3]; 6 μg/ml methicillin + MSM (initial % in label), 24 hours, 3.5% MSM and antibiotic added daily, inoculum Log=6.3, listed as 8% MSM): 4.50 Log cfu/ml
- survival (Log cfu/ml) ([3]; 6 μg/ml methicillin + MSM (initial % in label), 24 hours, 3.5% MSM and antibiotic added daily, inoculum Log=6.3, listed as 10% MSM): 4.40 Log cfu/ml
- survival (Log cfu/ml) ([3]; 6 μg/ml methicillin + MSM (initial % in label), 24 hours, 3.5% MSM and antibiotic added daily, inoculum Log=6.3, listed as 12% MSM): 4.60 Log cfu/ml
- survival (Log cfu/ml) ([3]; 6 μg/ml methicillin + MSM (initial % in label), 24 hours, 3.5% MSM and antibiotic added daily, inoculum Log=6.3, listed as 13% MSM): 4.90 Log cfu/ml
- survival (Log cfu/ml) ([3]; 6 μg/ml methicillin + MSM (initial % in label), 24 hours, 3.5% MSM and antibiotic added daily, inoculum Log=6.3, listed as 14% MSM): 4.90 Log cfu/ml
- survival (Log cfu/ml) ([3]; 6 μg/ml methicillin + MSM (initial % in label), 24 hours, 3.5% MSM and antibiotic added daily, inoculum Log=6.3, listed as 15% MSM): 5.00 Log cfu/ml
- survival (Log cfu/ml) ([3]; 6 μg/ml methicillin + MSM (initial % in label), 24 hours, 3.5% MSM and antibiotic added daily, inoculum Log=6.3, listed as 16% MSM): 5.00 Log cfu/ml
- average log reduction in cfu/ml [3, 4]: 2.7 log
- survival (Log cfu/ml) [3, 4]: 3.60 Log cfu/ml
- average log reduction in cfu/ml [3, 5]: 2.1 log
- survival (Log cfu/ml) [3, 5]: 4.17 Log cfu/ml
- survival (Log cfu/ml) ([3]; 6 μg/ml methicillin + MSM (initial % in label), 120 hours, listed as 5% MSM): TNTC
- survival (Log cfu/ml) ([3]; 6 μg/ml methicillin + MSM (initial % in label), 120 hours, listed as 8% MSM): TNTC
- survival (Log cfu/ml) ([3]; 6 μg/ml methicillin + MSM (initial % in label), 120 hours, listed as 10% MSM): TNTC
- survival (Log cfu/ml) ([3]; 6 μg/ml methicillin + MSM (initial % in label), 120 hours, listed as 12% MSM): 4.20 Log cfu/ml
- survival (Log cfu/ml) ([3]; 6 μg/ml methicillin + MSM (initial % in label), 120 hours, listed as 13% MSM): 2.80 Log cfu/ml
- survival (Log cfu/ml) ([3]; 6 μg/ml methicillin + MSM (initial % in label), 120 hours, listed as 14% MSM): 2.90 Log cfu/ml
- survival (Log cfu/ml) ([3]; 6 μg/ml methicillin + MSM (initial % in label), 120 hours, listed as 15% MSM): 2.80 Log cfu/ml
- survival (Log cfu/ml) ([3]; 6 μg/ml methicillin + MSM (initial % in label), 120 hours, listed as 16% MSM): 2.80 Log cfu/ml
- Log reduction in cfu/ml ([3]; 6 μg/ml methicillin + initial 13-16% MSM, 120 hours): ~3.5 log
- survival (Log cfu/ml) ([3]; 6 μg/ml oxacillin + MSM (initial % in label), 48 Hours, listed as 5% MSM): 5.20 Log cfu/ml
- survival (Log cfu/ml) ([3]; 6 μg/ml oxacillin + MSM (initial % in label), 48 Hours, listed as 10% MSM): 4.20 Log cfu/ml
- survival (Log cfu/ml) ([3]; 6 μg/ml oxacillin + MSM (initial % in label), 48 Hours, listed as 12% MSM): 4.30 Log cfu/ml
- survival (Log cfu/ml) ([3]; 6 μg/ml oxacillin + MSM (initial % in label), 48 Hours, listed as 13% MSM): 4.20 Log cfu/ml
- survival (Log cfu/ml) ([3]; 6 μg/ml oxacillin + MSM (initial % in label), 48 Hours, listed as 14% MSM): 4.40 Log cfu/ml
- survival (Log cfu/ml) ([3]; 6 μg/ml oxacillin + MSM (initial % in label), 48 Hours, listed as 15% MSM): 4.40 Log cfu/ml
- survival (Log cfu/ml) ([3]; 6 μg/ml oxacillin + MSM (initial % in label), 24 hours, listed as 5% MSM): 4.90 Log cfu/ml
- survival (Log cfu/ml) ([3]; 6 μg/ml oxacillin + MSM (initial % in label), 24 hours, listed as 8% MSM): 5.00 Log cfu/ml
- survival (Log cfu/ml) ([3]; 6 μg/ml oxacillin + MSM (initial % in label), 24 hours, listed as 10% MSM): 5.00 Log cfu/ml
- survival (Log cfu/ml) ([3]; 6 μg/ml oxacillin + MSM (initial % in label), 24 hours, listed as 12% MSM): 5.20 Log cfu/ml
- survival (Log cfu/ml) ([3]; 6 μg/ml oxacillin + MSM (initial % in label), 24 hours, listed as 13% MSM): 5.00 Log cfu/ml
- survival (Log cfu/ml) ([3]; 6 μg/ml oxacillin + MSM (initial % in label), 24 hours, listed as 14% MSM): 5.20 Log cfu/ml
- survival (Log cfu/ml) ([3]; 6 μg/ml oxacillin + MSM (initial % in label), 24 hours, listed as 15% MSM): 5.23 Log cfu/ml
- survival (Log cfu/ml) ([3]; 6 μg/ml oxacillin + MSM (initial % in label), 24 hours, listed as 16% MSM): 5.25 Log cfu/ml
- average log reduction in cfu/ml [3, 6]: 2.7 log
- survival (Log cfu/ml) [3, 6]: 3.60 Log cfu/ml
- average log reduction in cfu/ml [3, 7]: 2.1 log
- survival (Log cfu/ml) [3, 7]: 4.17 Log cfu/ml
- survival (Log cfu/ml) ([3]; 6 μg/ml oxacillin + MSM (initial % in label), 120 hours, listed as 5% MSM): TNTC
- survival (Log cfu/ml) ([3]; 6 μg/ml oxacillin + MSM (initial % in label), 120 hours, listed as 8% MSM): TNTC
- survival (Log cfu/ml) ([3]; 6 μg/ml oxacillin + MSM (initial % in label), 120 hours, listed as 10% MSM): TNTC
- survival (Log cfu/ml) ([3]; 6 μg/ml oxacillin + MSM (initial % in label), 120 hours, listed as 12% MSM): TNTC
- survival (Log cfu/ml) ([3]; 6 μg/ml oxacillin + MSM (initial % in label), 120 hours, listed as 13% MSM): TNTC
- survival (Log cfu/ml) ([3]; 6 μg/ml oxacillin + MSM (initial % in label), 120 hours, listed as 14% MSM): 3.00 Log cfu/ml
- survival (Log cfu/ml) ([3]; 6 μg/ml oxacillin + MSM (initial % in label), 120 hours, listed as 15% MSM): 3.00 Log cfu/ml
- survival (Log cfu/ml) ([3]; 6 μg/ml oxacillin + MSM (initial % in label), 120 hours, listed as 16% MSM): 3.00 Log cfu/ml
- Log reduction in cfu/ml ([3]; 6 μg/ml oxacillin + initial 14-16% MSM, 120 hours): ~3.3 log
